Source: US20010011075A1, “5'-SUBSTITUTED-RIBOFURANOSYL BENZIMIDAZOLES AS ANTIVIRAL AGENTS” (priority 1999, published 2001)
Read-outs that look alike come from different tables or passages of the source.

How the values were obtained:
[1] = system: HFF cells; assay: Visual cytotoxicity in stationary HFF cells at time of plaque enumeration; type: cell-based, human; conditions: visual cytotoxicity on HFF cells at time of HCMV plaque enumeration; read-out: 50% Inhibitory Concentration, Cytotoxicity (HFF)
Description: (§1) KB cells (available from the American Type Culture Collection (ATCC) 12301 Parklawn Drive, […], Md. 20852 (ATCC CCL 17)), an established human cell line derived from an epidermal oral carcinoma, were grown in minimal essential medium (MEM) (Sigma) with Hanks salts (MEM(H)) supplemented with 5% fetal calf serum. Human foreskin fibroblasts (HFF cells) (provided by the University of Michigan Hospital) and African green monkey kidney cells (BSC-1) (ATTC CCL 26) cells were grown in MEM with Earl salts (MEM(E)) supplemented with 10% fetal bovine serum. Cells were passaged according to conventional procedures and as described in Shipman, C., Jr. et al. (1976) Antimicrob. Agents Chemother. Vol. 9:120 and incorporated herein by reference. Briefly, cells were passaged at 1:2 to 1:10 dilutions according to conventional procedures by using 0.05% trypsin plus 0.02% EDTA in a HEPES buffered salt solution. HFF cells were passaged only at 1:2 dilutions.
(§2) Two different methods were used to evaluate cytotoxicity of the compounds. First, cytotoxicity produced in stationary HFF cells was determined by microscopical examination of cells not affected by the virus used in the plaque assay. Second the effect of compounds on KB cells during two population doubling times was determined by crystal violet staining and spectrophotometric quantitation of dye eluted from stained cells. This method has been utilized for the analysis of ganciclovir and zidovudine (See Prichard, M. N. et al. Antiviral Res. (1991) Vol. 35:1060-1065).
(§3) (3) Visual cytotoxicity was scored on HFF cells at the time of HCMV plaque enumeration. Inhibition of KB cell growth was determined as described in the experimental. 3L was used as a positive control for the KB cytotoxicity assay.

[2] = system: KB cells; assay: Inhibition of KB cell growth (crystal violet staining); type: cell-based, human; conditions: inhibition of KB cell growth; read-out: 50% Inhibitory Concentration, Cytotoxicity (KB)
Description: as §1, §2, §3

[3] = system: HCMV; conditions: background statement; times more active than TCRB; cited from earlier work
[4] = system: HCMV; assay: HCMV plaque (focus) reduction assay in HFF cells; type: cell-based, HCMV (Towne strain); conditions: for IC50: HCMV plaque assay, HFF cells, averages from two or more experiments, read-out: 50% Inhibitory Concentration, Antiviral Activity (plaque); for anti-HCMV activity (in words): Table 1
Description: (§4) A plaque purified isolate, Po, of the Towne strain of HCMV was used in all experiments and was a gift of Dr. Mark Stinski, University of Iowa. The KOS strain of HSV-1 was used and was provided by Dr. Sandra K. Weller, University of Connecticut. Stock preparations of HCMV and HSV-1 were prepared and titered as known to those of skill and the art and described in Turk, S. R. et al. (1987) Antimicrob. Agents Chemother. Vol. 31:544-550 and Shipman, C., Jr., et al. (1990) J. Virol. Methods Vol. 28:101-106, each incorporated herein by reference.
(§5) HCMV plaque reduction experiments were performed with monolayer cultures of HFF cells by a procedure similar to that referenced above for titration of the viruses and described in Devivar, R. V. et al. (1994) J. Med. Chem. Vol. 37:2942-2949. Activity of compounds against HSV-1 was evaluated using an ELISA assay.
The effect of compounds of the replication of HCMV was measured using a plaque (focus) reduction assay. For the former, HFF cells in 24-well culture dishes were infected with approximately 50 p.f.u. of HCMV per well using the procedures detailed above. Compounds dissolved in growth medium were added in four to six selected concentrations to duplicate wells following virus adsorption. Following incubation at 37° C. for 7 to 10 days, cell sheets were fixed, stained and microscopic plaques were enumerated as described above. Drug effects were calculated as a percentage of reduction in number of plaques in the presence of each drug concentration compared to the number observed in the absence of drug. DHPG (ganciclovir) was used as a positive control in all experiments.
(§6) Dose-response relationships can be used to compare drug effects. These are constructed by linearly regressing the percent inhibition of parameters derived in the preceding sections against log drug concentrations. The 50 inhibitory (I50) concentrations were calculated from the regression lines using the methods described by Goldstein. See Goldstein, A., Biostatistics: An Introductory Text, MacMillan, New York, pp. 156-161 (1964), incorporated herein by reference.
(§7) (2) A plaque assay was used to quantitate anti HCMV activity, an ELISA assay was used to quantitate activity against HSV-1. DHPG (ganciclovir) was used as a positive control for the HCMV assay.

[5] = system: HSV-1; assay: HSV-1 ELISA assay; type: cell-based, HSV-1 (KOS strain); conditions: read-out: 50% Inhibitory Concentration, Antiviral Activity (ELISA)
Description: as §4, §5
ELISA techniques according to standard procedures were also used to determine activity against HSV-1. Drug effects were calculated as a percentage of the reduction in virus titers in the presence of each drug concentration compared to the titer obtained in the absence of drug. Ganciclovir was used as a positive control in all experiments.
as §6, §7

[6] = Visual cytotoxicity in stationary HFF cells at time of plaque enumeration; type: cell-based, human; conditions: human, stationary human foreskin fibroblasts (HFF cells); visual cytotoxicity on HFF cells at time of HCMV plaque enumeration; read-out: 50% Inhibitory Concentration, Cytotoxicity (HFF)
Description: as §1, §2, §3

[7] = Inhibition of KB cell growth (crystal violet staining); type: cell-based, human; conditions: human, KB cells (human epidermal oral carcinoma line); inhibition of KB cell growth; read-out: 50% Inhibitory Concentration, Cytotoxicity (KB)
Description: as §1, §2, §3

[8] = system: L1210 cells; assay: Antiproliferative activity: growth of L1210 cells; type: cell-based, mouse; conditions: concentration required to decrease final growth rate of L1210 cells to half of control rate, read-out: 50% Inhibitory Concentration, Antiproliferative Activity
Description: Antiproliferative activity was evaluated by measuring the effect of the compounds on the growth of L1210 cells, a mouse leukemia cell line which is generally available and can be obtained from Cancer Chemotherapy Center, Japanese Foundation for Cancer Research. Antiproliferative activity was measured using conventional procedures and as described in Wotring, L. L. and Townsend, L. B., (1979) Cancer Res. Vol. 39:3018-3023 and Cory, A. H. et al. (1991) Cancer Comm. Vol. 3:207-212, each incorporated herein by reference.
(8) The concentration required to decrease the final growth rate of L1210 cells to half of the control rate. All values are averages from two or more experiments.

[9] = averages from two or more experiments
[10] = Human alphaherpesvirus 1, averages from two or more experiments

SMILES	IC50 [1]	IC50 [2]	activity relative to TCRB [3]	IC50 [4]	IC50 [5, 9]	IC50 [6]	IC50 at 2 population doubling times [7]	IC50 ([4]; Human betaherpesvirus 5, HFF)	IC50 [5, 10]	melting point	anti-HCMV activity (in words) [4]	IC50 ([8]; Mus musculus)	IC50 [8]
C[C@H]1O[C@@H](n2c(Cl)nc3cc(Cl)c(Cl)cc32)[C@H](O)[C@@H]1O [Compound 2, 2,5,6-trichloro-1-(5′-deoxy-β-D-ribofuranosyl)benzimidazole, reference compound]	77 µM	150 µM	about 10 times	0.36 µM	> 100 µM								
COC[C@H]1O[C@@H](n2c(Cl)nc3cc(Cl)c(Cl)cc32)[C@H](OC(C)=O)[C@@H]1OC(C)=O [Compound 7a, 2,5,6-trichloro-1-(2′,3′-di-O-acetyl-5′-O-methyl-β-D-ribofuranosyl)benzimidazole]						26 µM	80 µM	2.8 µM	> 100 µM	150 to 151 °C			
CCOC[C@H]1O[C@@H](n2c(Cl)nc3cc(Cl)c(Cl)cc32)[C@H](OC(C)=O)[C@@H]1OC(C)=O [Compound 7b, 2,5,6-trichloro-1-(2′,3′-di-O-acetyl-5′-O-ethyl-β-D-ribofuranosyl)benzimidazole]						33 µM	60 µM	4.3 µM	> 100 µM	125 to 126 °C			
CCCCOC[C@H]1O[C@@H](n2c(Cl)nc3cc(Cl)c(Cl)cc32)[C@H](OC(C)=O)[C@@H]1OC(C)=O [Compound 7c, 2,5,6-trichloro-1-(2′,3′-di-O-acetyl-5′-O-butyl-β-D-ribofuranosyl)benzimidazole]						66 µM	> 100 µM	21 µM	> 100 µM	143 to 144 °C			
CCCCCCOC[C@H]1O[C@@H](n2c(Cl)nc3cc(Cl)c(Cl)cc32)[C@H](OC(C)=O)[C@@H]1OC(C)=O [Compound 7d, 2,5,6-trichloro-1-(2′,3′-di-O-acetyl-5′-O-hexyl-β-D-ribofuranosyl)benzimidazole]						32 µM	60 µM	8 µM	> 100 µM	98 to 100 °C	decreased activity over the butyl compound (7c)		
COC[C@H]1O[C@@H](n2c(Cl)nc3cc(Cl)c(Cl)cc32)[C@H](O)[C@@H]1O [Compound 8a, 2,5,6-trichloro-1-(5′-O-methyl-β-D-ribofuranosyl)benzimidazole]						26 µM	90 µM	3 µM	> 100 µM	104 to 105 °C		60 µM	
CCOC[C@H]1O[C@@H](n2c(Cl)nc3cc(Cl)c(Cl)cc32)[C@H](O)[C@@H]1O [Compound 8b, 2,5,6-trichloro-1-(5′-O-ethyl-β-D-ribofuranosyl)benzimidazole]						26 µM	80 µM	4.6 µM	> 100 µM	88 to 90 °C		59 µM	
CCCCOC[C@H]1O[C@@H](n2c(Cl)nc3cc(Cl)c(Cl)cc32)[C@H](O)[C@@H]1O [Compound 8c, 2,5,6-trichloro-1-(5′-O-butyl-β-D-ribofuranosyl)benzimidazole]						32 µM	60 µM	14.2 µM	> 100 µM	70 to 72 °C		> 100 µM	
CSC[C@H]1O[C@@H](n2c(Cl)nc3cc(Cl)c(Cl)cc32)[C@H](O)[C@@H]1O [Compound 17b, 2,5,6-trichloro-1-(5′-deoxy-5′-methylthio-β-D-ribofuranosyl)benzimidazole]	32 µM	> 100 µM		4.5 µM	> 100 µM						equally active as the 5′-O-ethyl derivative (8b)		> 100 µM
